Organism: Rattus norvegicus
Assay: DrugMatrix - Regimen: Daily Repeat
Assay type: toxicity, organism-based, Sprague-Dawley
Parameters: regimen Daily Repeat, gender Male, age 6-8 weeks
Settings: in vivo, iv, vehicle 100 % SALINE; for ABSOLUTE BASOPHIL / ABSOLUTE EOSINOPHIL / ABSOLUTE LYMPHOCYTE / ABSOLUTE MONOCYTE / ABSOLUTE SEGMENTED NEUTROPHIL / BASOPHIL / EOSINOPHIL / ERYTHROCYTE COUNT / HEMATOCRIT / HEMOGLOBIN / LEUKOCYTE COUNT / LYMPHOCYTE / MEAN CORPUSCULAR HEMOGLOBIN / MEAN CORPUSCULAR HEMOGLOBIN CONCENTRATION / MEAN CORPUSCULAR VOLUME / MONOCYTE / NEUTROPHIL / NUCLEATED RED BLOOD CELLS / PLATELET COUNT: tissue Blood; for ALANINE AMINOTRANSFERASE / ALBUMIN / ALKALINE PHOSPHATASE / ASPARTATE AMINOTRANSFERASE / BLOOD UREA NITROGEN / CARBON DIOXIDE / CHLORIDE / CHOLESTEROL / CREATINE PHOSPHOKINASE / CREATININE / GLUCOSE / LACTATE DEHYDROGENASE / LIPASE / PHOSPHORUS / POTASSIUM / SODIUM / TOTAL BILIRUBIN / TOTAL PROTEIN / URIC ACID: tissue Plasma
[1] = 0.01 mg/kg, 72 h, dose level Low, time 3 day
[2] = 0.01 mg/kg, 120 h, dose level Low, time 5 day
[3] = 15 mg/kg, 72 h, dose level High, time 3 day

Compound: CC(C)NCC(O)c1ccc(O)c(O)c1 (centres undefined) [ISOPROTERENOL]
- ABSOLUTE BASOPHIL [1]: 0 CELLS/uL
- ABSOLUTE EOSINOPHIL [1]: 134.67 CELLS/uL
- ABSOLUTE LYMPHOCYTE [1]: 13411.33 CELLS/uL
- ABSOLUTE MONOCYTE [1]: 299.67 CELLS/uL
- ABSOLUTE SEGMENTED NEUTROPHIL [1]: 1854.33 CELLS/uL
- BASOPHIL [1]: 0%
- EOSINOPHIL [1]: 0.67%
- ERYTHROCYTE COUNT [1]: 5.6 x10E6/uL
- HEMATOCRIT [1]: 34.43%
- HEMOGLOBIN [1]: 12.9 G/DL
- LEUKOCYTE COUNT [1]: 15.7 x10E3/uL
- LYMPHOCYTE [1]: 85.33%
- MEAN CORPUSCULAR HEMOGLOBIN [1]: 23.03 pg
- MEAN CORPUSCULAR HEMOGLOBIN CONCENTRATION [1]: 37.47 G/DL
- MEAN CORPUSCULAR VOLUME [1]: 61.43 fL
- MONOCYTE [1]: 2%
- NEUTROPHIL [1]: 12%
- NUCLEATED RED BLOOD CELLS [1]: 0 /100WBC
- PLATELET COUNT [1]: 1265.33 x10E3/uL
- ALANINE AMINOTRANSFERASE [1]: 39.67 u/L
- ALBUMIN [1]: 4.4 G/DL
- ALKALINE PHOSPHATASE [1]: 368 u/L
- ASPARTATE AMINOTRANSFERASE [1]: 75 u/L
- BLOOD UREA NITROGEN [1]: 14.33 mg/dL
- CARBON DIOXIDE [1]: 25 mmol/L
- CHLORIDE [1]: 104 MEQ/L
- CHOLESTEROL [1]: 69.67 mg/dL
- CREATINE PHOSPHOKINASE [1]: 196.33 u/L
- CREATININE [1]: 0.24 mg/dL
- GLUCOSE [1]: 149.67 mg/dL
- LACTATE DEHYDROGENASE [1]: 289 u/L
- LIPASE [1]: 9.67 u/L
- PHOSPHORUS [1]: 13.47 mg/dL
- POTASSIUM [1]: 6.71 MEQ/L
- SODIUM [1]: 146.07 MEQ/L
- TOTAL BILIRUBIN [1]: 0.2 mg/dL
- TOTAL PROTEIN [1]: 5.97 G/DL
- URIC ACID [1]: 2.17 mg/dL
- ABSOLUTE BASOPHIL [2]: 0 CELLS/uL
- ABSOLUTE EOSINOPHIL [2]: 0 CELLS/uL
- ABSOLUTE LYMPHOCYTE [2]: 15742 CELLS/uL
- ABSOLUTE MONOCYTE [2]: 224 CELLS/uL
- ABSOLUTE SEGMENTED NEUTROPHIL [2]: 800.67 CELLS/uL
- BASOPHIL [2]: 0%
- EOSINOPHIL [2]: 0%
- ERYTHROCYTE COUNT [2]: 5.33 x10E6/uL
- HEMATOCRIT [2]: 32.33%
- HEMOGLOBIN [2]: 12.57 G/DL
- LEUKOCYTE COUNT [2]: 16.77 x10E3/uL
- LYMPHOCYTE [2]: 94%
- MEAN CORPUSCULAR HEMOGLOBIN [2]: 23.6 pg
- MEAN CORPUSCULAR HEMOGLOBIN CONCENTRATION [2]: 38.9 G/DL
- MEAN CORPUSCULAR VOLUME [2]: 60.67 fL
- MONOCYTE [2]: 1.33%
- NEUTROPHIL [2]: 4.67%
- NUCLEATED RED BLOOD CELLS [2]: 0 /100WBC
- PLATELET COUNT [2]: 1122.67 x10E3/uL
- ALANINE AMINOTRANSFERASE [2]: 81 u/L
- ALBUMIN [2]: 3.6 G/DL
- ALKALINE PHOSPHATASE [2]: 310 u/L
- ASPARTATE AMINOTRANSFERASE [2]: 65 u/L
- BLOOD UREA NITROGEN [2]: 16.67 mg/dL
- CARBON DIOXIDE [2]: 24 mmol/L
- CHLORIDE [2]: 107.5 MEQ/L
- CHOLESTEROL [2]: 61.33 mg/dL
- CREATINE PHOSPHOKINASE [2]: 282.67 u/L
- CREATININE [2]: 0.3 mg/dL
- GLUCOSE [2]: 161.67 mg/dL
- LACTATE DEHYDROGENASE [2]: 140 u/L
- LIPASE [2]: 11 u/L
- PHOSPHORUS [2]: 11.23 mg/dL
- POTASSIUM [2]: 6.08 MEQ/L
- SODIUM [2]: 146.4 MEQ/L
- TOTAL BILIRUBIN [2]: 0.13 mg/dL
- TOTAL PROTEIN [2]: 5.73 G/DL
- URIC ACID [2]: 1.3 mg/dL
- ABSOLUTE BASOPHIL [3]: 0 CELLS/uL
- ABSOLUTE EOSINOPHIL [3]: 47.67 CELLS/uL
- ABSOLUTE LYMPHOCYTE [3]: 15188.67 CELLS/uL
- ABSOLUTE MONOCYTE [3]: 404 CELLS/uL
- ABSOLUTE SEGMENTED NEUTROPHIL [3]: 1159.67 CELLS/uL
- BASOPHIL [3]: 0%
- EOSINOPHIL [3]: 0.33%
- ERYTHROCYTE COUNT [3]: 5.66 x10E6/uL
- HEMATOCRIT [3]: 36.93%
- HEMOGLOBIN [3]: 13.6 G/DL
- LEUKOCYTE COUNT [3]: 16.8 x10E3/uL
- LYMPHOCYTE [3]: 90.67%
- MEAN CORPUSCULAR HEMOGLOBIN [3]: 24 pg
- MEAN CORPUSCULAR HEMOGLOBIN CONCENTRATION [3]: 36.83 G/DL
- MEAN CORPUSCULAR VOLUME [3]: 65.2 fL
- MONOCYTE [3]: 2.33%
- NEUTROPHIL [3]: 6.67%
- NUCLEATED RED BLOOD CELLS [3]: 0 /100WBC
- PLATELET COUNT [3]: 1372 x10E3/uL
- ALANINE AMINOTRANSFERASE [3]: 39 u/L
- ALBUMIN [3]: 4.1 G/DL
- ALKALINE PHOSPHATASE [3]: 370.67 u/L
- ASPARTATE AMINOTRANSFERASE [3]: 73.67 u/L
- BLOOD UREA NITROGEN [3]: 19.33 mg/dL
- CARBON DIOXIDE [3]: 24.67 mmol/L
- CHLORIDE [3]: 106 MEQ/L
- CHOLESTEROL [3]: 80.33 mg/dL
- CREATINE PHOSPHOKINASE [3]: 282.67 u/L
- CREATININE [3]: 0.17 mg/dL
- GLUCOSE [3]: 151.33 mg/dL
- LACTATE DEHYDROGENASE [3]: 128.33 u/L
- LIPASE [3]: 9 u/L
- PHOSPHORUS [3]: 10.87 mg/dL

Reference: ChEMBL document CHEMBL3885881, “DrugMatrix”
